Reference: patent US6894061B2, “Substituted dihydrophenanthridinesulfonamides” (Wyeth, priority 2002, dated 2005)
Where two headings read alike, the source gives them in different places.

Assays:
ER/NF-κB = ER/NF-κB luciferase reporter in Ad5-wt-ERα infected HAECT-1 cells; type: cell-based, human; settings: for Emax: read-out: ER/NFκB Efficacy (%)*; for IC50: read-out: ER/NFκB IC50
Protocol: (§1) After four hours, cells were washed with EBM-BSA and incubated overnight in the same medium. Following overnight incubation, cells were washed with EBM-BSA and infected for 2 hours with 6 mL of a 1:10 dilution of Ad5-3x(NFκB).Luc virus (Adenovirus luciferase expression vector driven by 3 repeats of the MHC NFκb site 5′ to the thymidine kinase promoter) in EBM-BSA. After two hours, cells were washed and incubated at 34° C. for 1 hour. […] Control (no ER infection) cells were processed as above without Ad5-wt-hERα virus infection.
(§2) ERα infected HAECT-1 cells or control cells were thawed, diluted 42× in warm EBM-BSA, plated into 96-well plates at 0.1 mL/well and incubated for 4 hours at 34° C. Test compounds were added to the cells as 2× stocks in EBM-BSA containing 2 ng/mL IL-1β (R&D Systems) and the 96-well plates were returned to the incubator (34° C.). After 15-20 hours, 100 μL aliquots of media were removed from the cells and assayed for IL-6 content using a BioSource human IL-6 ELISA Kit. Cells were subsequently washed with 300 μL of Dulbecco's phosphate buffered saline and lysed in 50 μL of Cell Culture Lysis Reagent (Promega). Luciferase was determined on a Wallac Victor^2 Luminometer (Gaithersburg, Md.) using 10 μL of lysate and mixing with 100 μL of Promega Luciferase Assay reagent. Creatine kinase was determined from the rate of increase in A340 following addition of 100 μL of CK assay reagent (Sigma, cat. No 47-10) to the remainder of the cell lysate.
(§3) For IC50 and EC50 calculations, mean IL-6, luciferase or CK values versus log10 of the compound concentration were fitted to a four parameter logistic equation. The IC50/EC50 value, ‘Hill slope’, upper and lower limits of the curve were iteratively estimated.

creatine kinase = assay: Creatine kinase (CK) test procedure in Ad5-wt-ERα infected HAECT-1 cells; type: cell-based, human; settings: Ad5-wt-ERα infected HAECT-1 cells; for Emax at 10 µM / Creatin Kinase Efficacy (%): @10 μM
Protocol: as §1, §2, §3

[1] = Homo sapiens, HAECT1, read-out: Creatin Kinase Efficacy (%)

Row | IC50 (ER/NF-κB; Homo sapiens, HAECT1, IL-1β) | IC50 (ER/NF-κB; IL-1β) | EC50 (creatine kinase; Homo sapiens, HAECT1, read-out: Creatin Kinase EC50) | SMILES | Emax (ER/NF-κB; Homo sapiens, HAECT1, IL-1β) | Emax at 10 µM (creatine kinase; [1]) | ER/NFκB Efficacy (%)* (ER/NF-κB; IL-1β) | Creatin Kinase Efficacy (%) (creatine kinase) | Emax (creatine kinase; [1])
1 | 529 nM |  |  | CCC1c2ccccc2-c2ccccc2N1S(=O)(=O)c1ccc(O)cc1 (stereo not drawn) [Example 18, 4-[(6-Ethylphenanthridin-5(6H)-yl)sulfonyl]phenol] | 76% | < 35% |  |  | 
2 | 2550 nM |  |  | CCC1c2ccccc2-c2cc(-c3cc4ccccc4s3)ccc2N1S(=O)(=O)c1ccc(O)c(C)c1 (stereo not drawn) [Example 90, 4-{[2-(1-Benzothien-2-yl)-6-ethylphenanthridin-5(6H)-yl]sulfonyl}-2-methylphenol] | 108% | < 35% |  |  | 
3 | 226 nM |  |  | CCC1c2ccccc2-c2cc(-c3ccsc3)ccc2N1S(=O)(=O)c1ccc(O)c(C)c1 (stereo not drawn) [Example 79, 4-[(6-Ethyl-2-thien-3-ylphenanthridin-5(6H)-yl)sulfonyl]-2-methylphenol] | 86% | < 35% |  |  | 
4 | 68 nM |  |  | CCC1c2cc(F)ccc2-c2cc(-c3ccsc3)ccc2N1S(=O)(=O)c1ccc(O)cc1 (stereo not drawn) [Example 52, 4-[(6-Ethyl-8-fluoro-2-thien-3-ylphenanthridin-5(6H)-yl)sulfonyl]phenol] | 95% | < 35% |  |  | 
5 | 52 nM |  |  | CCC1c2ccccc2-c2cc(-c3ccc(O)cc3)ccc2N1S(=O)(=O)c1ccc(O)cc1 (stereo not drawn) [Example 73, 4-{[6-Ethyl-2-(4-hydroxyphenyl)phenanthridin-5(6H)-yl]sulfonyl}phenol] | 56% | < 35% |  |  | 
6 |  | 335 nM |  | CCC1c2ccccc2-c2cc(-c3ccccc3O)ccc2N1S(=O)(=O)c1ccc(O)cc1 (stereo not drawn) [Example 63, 2-{6-Ethyl-5-[(4-hydroxyphnyl)sulfonyl]-5,6-dihydrphnanthridin-2-yl}ph nol] |  |  | 89% | <35% @10 μM | 
7 |  | 382 nM |  | CCC1c2ccccc2-c2cc(-c3ccc(O)cc3)ccc2N1S(=O)(=O)c1ccc(O)c(C)c1 (stereo not drawn) [Example 94, 4-{[6-Ethyl-2-(4-hydroxyphnyl)phenanthridin-5(6H)-yl]sulfnyl}-2-methylph nl] |  |  | 105% | <35% @10 μM | 
8 | 3930 nM |  |  | CCc1ccc(-c2ccc3c(c2)-c2ccccc2C(CC)N3S(=O)(=O)c2ccc(O)cc2)cc1 (stereo not drawn) [Example 75, 4-{[6-Ethyl-2-(4-ethylphenyl)phenanthridin-5(6H)-yl]sulfonyl}phenol] | 116% | < 35% |  |  | 
9 | 241 nM |  |  | CCC1c2ccccc2-c2cc(/C=C/c3ccccc3)ccc2N1S(=O)(=O)c1ccc(O)cc1 (stereo not drawn) [Example 65, 4-{[6-Ethyl-2-[(E)-2-phenylethenyl]phenanthridin-5(6H)-yl]sulfonyl}phenol] | 93% | < 35% |  |  | 
10 | 771 nM |  |  | CCC1c2ccccc2-c2cc(-c3ccccc3O)ccc2N1S(=O)(=O)c1ccc(O)c(C)c1 (stereo not drawn) [Example 78, 4-{[6-Ethyl-2-(2-hydroxyphenyl)phenanthridin-5(6H)-yl]sulfonyl}-2-methylphenol] | 79% | < 35% |  |  | 
11 | 831 nM |  |  | CCC1c2ccccc2-c2cc(Br)ccc2N1S(=O)(=O)c1ccc(O)c(C)c1 (stereo not drawn) [Example 21, 4-[(2-Bromo-6-ethylphenanthridin-5(6H)-yl)sulfonyl]-2-methylphenol] | 85% | < 35% |  |  | 
12 | 434 nM |  |  | CCC1c2ccccc2-c2cc(-c3ccccc3Cl)ccc2N1S(=O)(=O)c1ccc(O)cc1 (stereo not drawn) [Example 74, 4-{[2-(2-Chlorophenyl)-6-ethylphenanthridin-5(6H)-yl]sulfonyl}phenol] | 96% | < 35% |  |  | 
13 | 234 nM |  |  | CCC1c2ccccc2-c2cc(-c3cccc(OC)c3)ccc2N1S(=O)(=O)c1ccc(O)cc1 (stereo not drawn) [Example 29, 4-{[6-Ethyl-2-(3-methoxyphenyl)phenanthridin-5(6H)-yl]sulfonyl}phenol] | 86% | < 35% |  |  | 
14 | > 10000 nM |  | 239 nM | CCC1c2cc(F)ccc2-c2ccccc2N1S(=O)(=O)c1ccc(OC(=O)c2ccccc2)cc1 (stereo not drawn) [Example 55, 4-[(6-Ethyl-8-fluorophenanthridin-5(6H)-yl)sulfonyl]phenyl benzoate] |  |  |  |  | 32%

Further lines, the compound ahead of its results:

Row | SMILES | IC50 (ER/NF-κB; Homo sapiens, HAECT1, IL-1β) | IC50 (ER/NF-κB; IL-1β) | EC50 (creatine kinase; Homo sapiens, HAECT1, read-out: Creatin Kinase EC50) | Emax (ER/NF-κB; Homo sapiens, HAECT1, IL-1β) | Emax at 10 µM (creatine kinase; [1]) | ER/NFκB Efficacy (%)* (ER/NF-κB; IL-1β) | Creatin Kinase Efficacy (%) (creatine kinase) | Emax (creatine kinase; [1])
15 | CCC1c2ccccc2-c2cc(Br)ccc2N1S(=O)(=O)c1ccc(O)cc1 (stereo not drawn) [Example 19, 4-[(2-Bromo-6-ethylphenanthridin-5(6H)-yl)sulfonyl]phenol] | 186 nM |  |  | 80% | < 35% |  |  | 
16 | CC1c2c(O)cccc2-c2ccccc2N1S(=O)(=O)c1ccc(O)cc1 (stereo not drawn) [Example 39, 5-[(4-Hydroxyphenyl)sulfonyl]-6-methyl-5,6-dihydrophenanthridin-7-ol] | > 10000 nM |  |  |  | < 35% |  |  | 
17 | CCC1c2ccccc2-c2cc(-c3ccccc3Cl)ccc2N1S(=O)(=O)c1ccc(O)c(C)c1 (stereo not drawn) [Example 95, 4-{[2-(2-Chlorophenyl)-6-ethylphenanthridin-5(6H)-yl]sulfonyl}-2-methylphenol] | 678 nM |  |  | 89% | < 35% |  |  | 
18 | CCC1c2ccccc2-c2cc(-c3cccc(Cl)c3)ccc2N1S(=O)(=O)c1ccc(O)cc1 (stereo not drawn) [Example 67, 4-{[2-(3-Chlorophenyl)-6-ethylphenanthridin-5(6H)-yl]sulfonyl}phenol] | 245 nM |  |  | 79% | < 35% |  |  | 
19 | CCC1c2ccccc2-c2cc(-c3ccccc3)ccc2N1S(=O)(=O)c1ccc(O)cc1 (stereo not drawn) [Example 69, 4-[(6-Ethyl-2-phnylphenanthridin-5(6H)-yl)sulfonyl]phenol] |  | 235 nM |  |  |  | 90% | <35% @10 μM | 
20 | CCC1c2ccccc2-c2cc(-c3cccc(O)c3)ccc2N1S(=O)(=O)c1ccc(O)c(C)c1 (stereo not drawn) [Example 84, 4-{[6-Ethyl-2-(3-hydroxyphenyl)phenanthridin-5(6H)-yl]sulfonyl}-2-methylphenol] | 447 nM |  |  | 80% | < 35% |  |  | 
21 | CC1c2ccccc2-c2ccccc2N1S(=O)(=O)c1ccc(O)c(C=O)c1 (stereo not drawn) [Example 27, 2-Hydroxy-5-[(6-methylphenanthridin-5(6H)-yl)sulfonyl]b nzald hyde] |  | > 10000 nM |  |  |  |  | <35% @10 μM | 
22 | CCC1c2ccccc2-c2cc(-c3ccc(C(C)=O)s3)ccc2N1S(=O)(=O)c1ccc(O)cc1 (stereo not drawn) [Example 76, 1-(5-{6-Ethyl-5-[(4-hydroxyphnyl)sulfonyl]-5,6-dihydrophnanthridin-2-yl}thin-2-yl)ethanone] |  | 1180 nM |  |  |  | 67% | <35% @10 μM | 
23 | CCC1c2ccccc2-c2ccccc2N1S(=O)(=O)c1ccc(O)c(C)c1 (stereo not drawn) [Example 20, 4-[(6-Ethylphenanthridin-5(6H)-yl)sulfonyl]-2-methylphenol] | > 10000 nM |  |  |  | < 35% |  |  | 
24 | CCC1c2ccccc2-c2cc(-c3ccsc3)ccc2N1S(=O)(=O)c1ccc(O)cc1 (stereo not drawn) [Example 28, 4-[(6-Ethyl-2-thin-3-ylphnanthridin-5(6H)-yl)sulfonyl]phenol] |  | 76 nM |  |  |  | 98% | <35% @10 μM | 
25 | CCC1c2ccccc2-c2cc(-c3ccccc3C)ccc2N1S(=O)(=O)c1ccc(O)cc1 (stereo not drawn) [Example 70, 4-{[6-Ethyl-2-(2-mthylphnyl)phenanthridin-5(6H)-yl]sulfonyl}phenol] |  | 463 nM |  |  |  | 90% | <35% @10 μM | 
